Here are results for four molecules from US8357375B2, “Process for the preparation and use of a bivalent vaccine against morphine-heroine addiction” (Instituto Nacional de Psiquiatria Ramon de la Fuente Muniz, priority 2004, dated 2013).

The test deals with anti-morphine-heroin serum antibodies. The test can be described thus: competitive immunoenzymatic ELISA for antibody specificity. Type of test: binding, rat. The following applies: competitive antigen, nM-μM range. On the technique in general: In an ELISA, binding on a coated surface is turned into a signal by an enzyme label.
Consider `CN1CC[C@]23c4c5ccc(O[C@@H]6O[C@H](C(=O)O)[C@@H](O)[C@H](O)[C@H]6O)c4O[C@H]2[C@@H](O)C=C[C@H]3[C@H]1C5` [morphine-3-glucuronide], for which the “cross-recognition by anti-morphine-heroin serum antibodies” value is on record as “cross-recognize”. As for “β-endorphin (YGGFMTSEKSQTPLVTLFKNAIIKNAYKKGE; Beta-endorphin; UniProt P01189 237-267, looked up) [endogenous opioid peptide produced in the CNS of mammals]”, the entry is “not able to cross-recognize”; as for `CN1CC[C@]23c4c5ccc(O)c4O[C@H]2[C@@H](O[C@@H]2O[C@H](C(=O)O)[C@@H](O)[C@H](O)[C@H]2O)C=C[C@H]3[C@H]1C5` [morphine-6-glucuronide], “cross-recognize”; as for `O=C1CC[C@@]2(O)[C@H]3Cc4ccc(O)c5c4[C@@]2(CCN3CC2CC2)[C@H]1O5` [naltrexone], “no cross-recognition”.
